{"source": "paper PMC8026785", "about": "“The pharmacokinetics of [^18F]UCB-H revisited in the healthy non-human primate brain” (EJNMMI Research, 2021)", "key": {"[1]": {"test": "Plasma free fraction by ultrafiltration", "type": "in vitro ADME", "conditions": "NHP plasma, before tracer injection", "protocol": "The fraction of [^18F]UCB-H in NHP plasma samples not bound to plasma protein was measured before PET injection using a previously described ultrafiltration method. In brief, standard amounts of [^18F]UCB-H (≈15 kBq) were added to 200 μL plasma that was applied to Microcon® filtration devices containing an YM-10 membrane (Millipore, France). The devices were centrifuged for 10 min at 10,000 g (Sigma 2-16KL, France). [^18F]UCB-H activity concentration in the resulting ultrafiltrate (≈70 μL, CFP) and a sample of plasma (CP) were counted. The free fraction (fp) was calculated as: fp = CFP/CP and measured in triplicates."}, "SV2A": {"molecular_target": "T1, SV2A (Macaca fascicularis, UniProt Q4R4X3)", "T1 construct": "The current study evaluates [^18F]UCB-H pharmacokinetics in healthy NHPs; from tissue; host or cells: brain of living healthy cynomolgus monkeys (in vivo PET)", "T1 sequence (Q4R4X3 whole entry)": "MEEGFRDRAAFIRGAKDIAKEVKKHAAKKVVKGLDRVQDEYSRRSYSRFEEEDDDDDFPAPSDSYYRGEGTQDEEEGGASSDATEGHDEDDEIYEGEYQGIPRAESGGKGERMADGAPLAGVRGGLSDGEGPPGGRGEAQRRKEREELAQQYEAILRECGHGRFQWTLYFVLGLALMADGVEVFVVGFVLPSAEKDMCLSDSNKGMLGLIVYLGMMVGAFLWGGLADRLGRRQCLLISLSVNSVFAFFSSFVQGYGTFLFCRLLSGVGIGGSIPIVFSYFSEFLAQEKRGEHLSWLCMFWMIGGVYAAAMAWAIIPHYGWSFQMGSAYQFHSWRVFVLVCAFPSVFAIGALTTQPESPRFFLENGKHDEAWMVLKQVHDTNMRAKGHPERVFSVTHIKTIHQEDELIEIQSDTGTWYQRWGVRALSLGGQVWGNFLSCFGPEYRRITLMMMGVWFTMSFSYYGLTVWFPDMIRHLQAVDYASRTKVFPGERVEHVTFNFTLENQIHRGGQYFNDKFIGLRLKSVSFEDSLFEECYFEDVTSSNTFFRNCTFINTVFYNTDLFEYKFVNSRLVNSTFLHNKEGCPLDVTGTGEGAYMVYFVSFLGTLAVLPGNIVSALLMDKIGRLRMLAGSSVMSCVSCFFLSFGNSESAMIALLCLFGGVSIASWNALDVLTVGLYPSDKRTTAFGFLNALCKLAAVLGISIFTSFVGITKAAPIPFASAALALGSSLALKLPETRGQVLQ", "test": "Displacement PET studies of [^18F]UCB-H", "type": "in vivo, cynomolgus monkeys (Macaca fascicularis)", "conditions": "about half of total uptake displaceable", "protocol": "All four non-human primates (NHP) underwent a 2-h (2 h) test and retest PET scan; two NHP underwent an additional 4-h (4 h) retest PET scan. Three NHP underwent one 4-h (4 h) displacement PET scan. Arterial blood sampling was performed during test and retest scans with PET imaging spaced by at least 3 weeks between each scan. To this end, the femoral artery opposite to the saphenous vein used for radioligand injection was cannulated. For the 2-h (2 h) scans, we collected in total 28 blood samples of 1 mL: 16 samples during the first 5 min followed by […] every 5 min and […] every 10 min. For the 4 h scans, we collected an additional 6 samples every 20 min during the last two hours (34 samples in total). Larger samples (2 – 3 mL) were collected at 5, 15, 30, 60, 90, 120 min (2 h) and at 180, 240 min (4 h) for metabolite analysis. Displacement of [^18F]UCB-H was done by intravenous (IV) administration 90 min after [^18F]UCB-H injection of a bolus of 30 mg/kg LEV, or of 80 µg/kg (≈250 nmol/kg) or 5 mg/kg (≈15 µmol/kg) of cold [^19F]-UCB-H. Full experimental design of all NHP is outlined in Additional file 1: Table 1.\nSolvents and LEV (C8H14N2O2; MM 170.21 g/mol) were obtained at Sigma-Aldrich® (France), and [^19F]-UCB-H (C16H12F4N2O; MM 324.28 g/mol) was synthesised as previously described. Injectable solutions of [^19F]-UCB-H for displacement studies were prepared with a mixture of Tetrahydrofuran (THF), Médialipide® and glucose at 2.5% as previously described. LEV was dissolved in a glucose solution of 2.5% to reach a concentration of 90 mg/mL.\nPET image analysis was performed using PMOD software version 3.8 (PMOD Technologies Ltd., Zurich, Suisse). After individual co-registration of PET-MR images, a cynomolgus atlas published by Ballanger and coworkers was normalized to PET images to extract time activity curves in different brain regions. Volumes of interest (VOI) were cerebral white matter (16.7 cm^3), striatum (0.24 cm^3), thalamus (0.89 cm^3), cerebellum (3.83 cm^3), frontal—(2.50 cm^3), parietal—(5.35 cm^3), and temporal (8.22 cm^3) cortex, and whole brain (72.2 cm^3) as a composite region of all regions in the atlas. [^18F]UCB-H pharmacokinetics were evaluated by analyzing the time activity curves of the test- and retest scans using 1- and 2-tissue compartment models (unconstrained and constrained with global K1/k2 coupled fit across all regions, further referred to as 2TCM and 2TCM-c), and Logan graphical analysis with a fixed t* at 60 min [33] using the arterial plasma input function corrected for radio-metabolites to derive the volume of distribution in each region. Percentage standard error (%SE) was estimated from the theoretical parameter covariance matrix. Only reliable estimates (%SE less than 25%) were included in the current analyses. For the three drug studies, percent displacement of the total activity in the whole brain was estimated relative to an average baseline constructed from the two 4 h baseline studies. Briefly, Standardized Uptake Value (SUV) time activity curves (TACs) were calculated for the two baseline and the three displacement studies. Then, each curve was normalized to the SUV at t = 90 min, corresponding to the timeframe immediately before the administration of the drugs in the displacement studies. Baseline curves were averaged and the percent displacement of total activity was calculated as (baseline-displacement)/baseline at a given time post drug administration (see “Results”)."}}}
{"smiles": "O=C1C[C@H](c2cc(F)c(F)c(F)c2)CN1Cc1ccncc1[18F]", "note": "[[^18F]UCB-H]", "values": [{"measurement": "Plasma free parent fraction (fp)", "setting": "[1]", "result": "42.6 ± 1.6", "unit": "%"}, {"measurement": "BPND expected from maximum displacement", "setting": "SV2A", "result": "~1.0"}]}
